In US6331555A, “Treatment of platelet derived growth factor related disorders such as cancers” (priority 1999, dated 2001):
Where “and” joins values, the source holds several entries; their conditions need not be identical. Equal values may be shown once. Read-outs that look alike come from different tables or passages of the source.

Key:
[1] = system: HER2; experiment: Receptor tyrosine kinase inhibition, HER2; assay type: cell-based; conditions: read-out: HER2 IC50
Method: (§1) For western blotting, cells were plated in 2 mL growth medium into 6-well dishes (500,000 cells per well) and allowed to attach overnight. The medium was replaced with 2 mL MCDB 105 (UCSF Cell Culture Facility) supplemented with 1% FBS. The plates were then incubated overnight at 37° C., ambient CO2. […] After a 7 min incubation at room temperature with ligand, the plates were put on ice and washed three times with 1 mL ice-cold PBS plus 1 mM orthovanadate. Lysis was achieved by pipetting cells in 0.5 mL of buffer containing 50 mM Tris, pH 7.4, 10% glycerol, 1% NP-40, 2 mM EDTA, 1 mM sodium vanadate (Na3 VO4), 10 mM pyrophosphate, 1 mM PMSF, […]. A 300 μL aliquot of each lysate was immediately added to 100 μL 4×Laemmli sample buffer ([…] Tris pH 6.9, 20% glycerol, 7% SDS, 5 mM EDTA, 5% β-mercaptoethanol) containing phosphatase inhibitors, 2 mM Na3 VO4 and 10 mM pyrophosphate. Samples were boiled for 5 min, frozen in dry ice-ethanol, and stored at -80° C. Proteins were resolved by SDS-PAGE (Bio-Rad Miniprotean II) and transferred to nitrocellulose membrane (Schleicher & Schuell) at 120 volts for 1 hr at room temperature in buffer containing 25 mM Tris pH 8.3, 20% methanol, 0.2 M glycine, 0.1% SDS. The integrity of the protein-to-membrane transfer was determined by staining with 1% Ponceau S in 5% acetic acid for 5 min. After destaining in several distilled water rinses, the membrane was soaked overnight in blocking buffer containing 5% milk in Tris-buffered saline, 0.05% Tween 20. Phosphotyresine was detected by incubating the membrane (1 hr at room temperature) with an anti-phosphotyosine antiserum diluted in blocking buffer at 1:3000. For C6 cells, PDGF-β receptor content in the lysates was confirmed in duplicate sample lanes by western blotting using an antibody specific for PDGF-β receptor (UBI). The antibodies were visualized using ECL reagent from Amersham and by exposure to Fuji RX film.
(§2) For ELISA assays, cells were grown to 80-90% confluency in growth medium and seeded in 96-well tissue culture plates in 0.5% serum at 25,000 to 30,000 cells per well. After overnight incubation in 0.5% serum-containingmedium, cells were changed to serum-free medium and treated with test compound for 2 hr in a 5% CO2, 37° C. incubator. Cells were then stimulated with ligand for 5-10 min followed by lysis with HNTG (20 mM Hepes, 150 mM NaCl, 10% glycerol, 5 mM EDTA, 5 mM Na3 VO4 0.2% Triton X-100, and 2 mM NaPyr). Cell lysates (0.5 mg/well in PBS) were transferred to ELISA plates previously coated with receptor-specific antibody and which had been blocked with 5% milk in TBST (50 mM Tris-HCl pH 7.2, 150 mM NaCl and 0.1% Triton X-100) at room temperature for 30 min. Lysates were incubated with shaking for 1 hr at room temperature. The plates were washed with TBST four times and then incubated with polyclonol anti-phosphotyrosine antibody at room temperature for 30 min. Excess anti-phosphotyrosine antibody was removed by rinsing the plate with TBST four times. Goat anti-rabbit IgG antibody was added to the ELISA plate for 30 min at room temperature followed by rinsing with TBST four more times.
(§3) The ability of different compound to inhibit different receptor tyrosine kinases was tested.

[2] = system: C6 cells; experiment: C6 SRB growth assay; assay type: cell-based, rat; conditions: for IC50: read-out: C6 SRB IC50
[3] = biological target: T1, EGFR (Homo sapiens, UniProt P00533); experiment: Receptor tyrosine kinase inhibition, EGFR; assay type: cell-based; conditions: read-out: EGFR ID50
T1 construct: expressed in transfected cells; host or cells: NIH3T3 mouse fibroblasts, retroviral vector
Method: as §1, §2, §3

[4] = biological target: T2, PDGF-R (U1242) (Homo sapiens, UniProt P09619); experiment: U1242 kinase (PDGF-R activity); assay type: cell-based
T2 construct: U1242 (PDGF-β receptor); host or cells: U1242 MG glioma cells
Method: as §1, with “The medium was replaced with 2 mL MCDB 105 (UCSF Cell Culture Facility) supplemented with 1% FBS.” left out, “Proteins were resolved by SDS-PAGE (Bio-Rad Miniprotean II) and transferred to nitrocellulose membrane (Schleicher & Schuell) at 120 volts for 1 hr at room temperature in buffer containing 25 mM Tris pH 8.3, 20% methanol, 0.2 M glycine, 0.1% SDS.” left out, “For C6 cells, PDGF-β receptor content in the lysates was confirmed in duplicate sample lanes by western blotting using an antibody specific for PDGF-β receptor (UBI).” left out
(§4) For ELISA assays, cells were grown to 80-90% confluency in growth medium and seeded in 96-well tissue culture plates in 0.5% serum at 25,000 to 30,000 cells per well. After overnight incubation in 0.5% serum-containingmedium, cells were changed to serum-free medium and treated with test compound for 2 hr in a 5% CO2, 37° C. incubator. […] Lysates were incubated with shaking for 1 hr at room temperature. The plates were washed with TBST four times and then incubated with polyclonol anti-phosphotyrosine antibody at room temperature for 30 min. Excess anti-phosphotyrosine antibody was removed by rinsing the plate with TBST four times. Goat anti-rabbit IgG antibody was added to the ELISA plate for 30 min at room temperature followed by rinsing with TBST four more times.
PDGF-R activity, C6 SRB, and in vivo efficacy were measured using the procedures described in the appendices above.

[5] = system: PDGFR; experiment: Receptor tyrosine kinase inhibition, PDGFR; assay type: cell-based; conditions: W = done in Western assay; read-out: PDGFR IC50 (W)
Method: as §1, with “The medium was replaced with 2 mL MCDB 105 (UCSF Cell Culture Facility) supplemented with 1% FBS.” left out, “Proteins were resolved by SDS-PAGE (Bio-Rad Miniprotean II) and transferred to nitrocellulose membrane (Schleicher & Schuell) at 120 volts for 1 hr at room temperature in buffer containing 25 mM Tris pH 8.3, 20% methanol, 0.2 M glycine, 0.1% SDS.” left out, “For C6 cells, PDGF-β receptor content in the lysates was confirmed in duplicate sample lanes by western blotting using an antibody specific for PDGF-β receptor (UBI).” left out
as §4, §3

[6] = system: C6 glioma cells; experiment: C6 glioma SC xenograft in mice; assay type: in vivo
Method: (§5) Cell lines were grown in appropriate medium (see Appendix 1). Cells were harvested at or near confluency with 0.05% Trypsin-EDTA and pelleted at 450×g for 10 min. Pellets were resuspended in sterile PBS or media (without FBS) to a particular concentration and the cells were implanted into the hindflank of mice. Tumor growth was measured over 3 to 6 weeks using venier calipers. Tumor volumes were calculated as a product of length×width×height unless otherwise indicated. P values were calculated using the Students' t-test.
(§6) C6 and SKOV-3(T) cells were grown in culture, as described in "cell growth" above, and implanted into the hind flank of a female Balb/c nu/nu mouse at 3×10^6 cells (for C6 experiments), or 1×10^7 cells (for SKOV-3 experiments) in […] of PBS on Day 0. U87MG, U118MG or U373MG human glioblastoma cells (obtained from the ATCC), or A4312 were also implanted into athymic mice. […] Tumors were measured using venier calipers and tumor volume was calculated as a product of tumor length, width, and height.

[7] = C6 glioma SC xenograft in mice; assay type: in vivo; conditions: rat, in vivo, ip; for mortality at 240 h: 60 mg/kg (G24 at d10)
Method: as §5, §6

[8] = LD10; conditions: in vivo
[9] = biological target: PDGFR (Homo sapiens, UniProt P09619); experiment: Receptor tyrosine kinase inhibition, PDGFR; assay type: cell-based; set-up: U1242 (PDGF-β receptor); host or cells: U1242 glioma cells (ELISA)
Method: as §1, with “The medium was replaced with 2 mL MCDB 105 (UCSF Cell Culture Facility) supplemented with 1% FBS.” left out, “Proteins were resolved by SDS-PAGE (Bio-Rad Miniprotean II) and transferred to nitrocellulose membrane (Schleicher & Schuell) at 120 volts for 1 hr at room temperature in buffer containing 25 mM Tris pH 8.3, 20% methanol, 0.2 M glycine, 0.1% SDS.” left out, “For C6 cells, PDGF-β receptor content in the lysates was confirmed in duplicate sample lanes by western blotting using an antibody specific for PDGF-β receptor (UBI).” left out
as §4, §3

[10] = biological target: T3, FLK-1 (Mus musculus, UniProt P35918); experiment: Receptor tyrosine kinase inhibition, FLK-1; assay type: cell-based; conditions: read-out: FLK-1 IC50
T3 construct: expressed in transfected cells; host or cells: NIH3T3 mouse fibroblasts, retroviral vector
Method: as §1, §2, §3

[11] = W = done in Western assay, read-out: U1242 KINASE IC50 (W)
[12] = Rattus norvegicus, C6 glioma, sc, at 40 mg/kg, read-out: C6 in vivo EFFICACY
[13] = 40 mg/kg (J10 at d18, G24 at d15)

T3 sequence (P35918 20-1345): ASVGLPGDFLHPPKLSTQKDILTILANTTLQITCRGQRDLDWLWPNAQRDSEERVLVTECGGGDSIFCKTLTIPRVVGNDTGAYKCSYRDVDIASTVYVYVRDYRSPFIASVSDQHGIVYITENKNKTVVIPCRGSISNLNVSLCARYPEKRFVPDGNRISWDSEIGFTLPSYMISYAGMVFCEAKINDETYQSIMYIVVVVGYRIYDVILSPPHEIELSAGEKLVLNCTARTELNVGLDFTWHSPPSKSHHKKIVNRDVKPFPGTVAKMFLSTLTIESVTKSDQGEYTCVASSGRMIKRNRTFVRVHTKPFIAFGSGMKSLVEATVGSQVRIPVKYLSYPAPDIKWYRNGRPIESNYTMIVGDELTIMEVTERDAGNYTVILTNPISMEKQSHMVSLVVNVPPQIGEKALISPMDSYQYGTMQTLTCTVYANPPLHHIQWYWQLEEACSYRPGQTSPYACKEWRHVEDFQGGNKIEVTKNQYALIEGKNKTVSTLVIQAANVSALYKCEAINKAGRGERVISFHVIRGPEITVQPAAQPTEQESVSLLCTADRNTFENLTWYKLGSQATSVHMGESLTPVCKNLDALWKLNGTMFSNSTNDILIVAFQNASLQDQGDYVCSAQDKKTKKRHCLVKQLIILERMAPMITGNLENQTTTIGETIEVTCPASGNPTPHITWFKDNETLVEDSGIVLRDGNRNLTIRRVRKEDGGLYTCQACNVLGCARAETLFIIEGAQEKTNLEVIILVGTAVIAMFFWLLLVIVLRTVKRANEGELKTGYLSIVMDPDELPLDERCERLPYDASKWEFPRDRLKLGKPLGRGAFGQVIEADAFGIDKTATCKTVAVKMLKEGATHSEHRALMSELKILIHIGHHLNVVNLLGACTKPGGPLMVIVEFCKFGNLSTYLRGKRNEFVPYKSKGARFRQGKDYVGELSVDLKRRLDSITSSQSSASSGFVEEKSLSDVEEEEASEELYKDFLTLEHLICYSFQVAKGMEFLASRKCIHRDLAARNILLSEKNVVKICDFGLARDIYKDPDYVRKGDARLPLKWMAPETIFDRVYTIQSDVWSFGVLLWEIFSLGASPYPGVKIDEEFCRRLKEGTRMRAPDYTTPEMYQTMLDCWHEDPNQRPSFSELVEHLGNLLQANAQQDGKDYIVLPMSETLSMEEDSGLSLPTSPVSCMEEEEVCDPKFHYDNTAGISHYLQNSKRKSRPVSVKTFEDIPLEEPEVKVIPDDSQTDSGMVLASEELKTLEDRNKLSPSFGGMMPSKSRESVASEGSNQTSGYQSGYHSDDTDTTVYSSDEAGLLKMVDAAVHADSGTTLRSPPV
PDGFR (Homo sapiens, UniProt P09619), sequence (P09619 33-1106): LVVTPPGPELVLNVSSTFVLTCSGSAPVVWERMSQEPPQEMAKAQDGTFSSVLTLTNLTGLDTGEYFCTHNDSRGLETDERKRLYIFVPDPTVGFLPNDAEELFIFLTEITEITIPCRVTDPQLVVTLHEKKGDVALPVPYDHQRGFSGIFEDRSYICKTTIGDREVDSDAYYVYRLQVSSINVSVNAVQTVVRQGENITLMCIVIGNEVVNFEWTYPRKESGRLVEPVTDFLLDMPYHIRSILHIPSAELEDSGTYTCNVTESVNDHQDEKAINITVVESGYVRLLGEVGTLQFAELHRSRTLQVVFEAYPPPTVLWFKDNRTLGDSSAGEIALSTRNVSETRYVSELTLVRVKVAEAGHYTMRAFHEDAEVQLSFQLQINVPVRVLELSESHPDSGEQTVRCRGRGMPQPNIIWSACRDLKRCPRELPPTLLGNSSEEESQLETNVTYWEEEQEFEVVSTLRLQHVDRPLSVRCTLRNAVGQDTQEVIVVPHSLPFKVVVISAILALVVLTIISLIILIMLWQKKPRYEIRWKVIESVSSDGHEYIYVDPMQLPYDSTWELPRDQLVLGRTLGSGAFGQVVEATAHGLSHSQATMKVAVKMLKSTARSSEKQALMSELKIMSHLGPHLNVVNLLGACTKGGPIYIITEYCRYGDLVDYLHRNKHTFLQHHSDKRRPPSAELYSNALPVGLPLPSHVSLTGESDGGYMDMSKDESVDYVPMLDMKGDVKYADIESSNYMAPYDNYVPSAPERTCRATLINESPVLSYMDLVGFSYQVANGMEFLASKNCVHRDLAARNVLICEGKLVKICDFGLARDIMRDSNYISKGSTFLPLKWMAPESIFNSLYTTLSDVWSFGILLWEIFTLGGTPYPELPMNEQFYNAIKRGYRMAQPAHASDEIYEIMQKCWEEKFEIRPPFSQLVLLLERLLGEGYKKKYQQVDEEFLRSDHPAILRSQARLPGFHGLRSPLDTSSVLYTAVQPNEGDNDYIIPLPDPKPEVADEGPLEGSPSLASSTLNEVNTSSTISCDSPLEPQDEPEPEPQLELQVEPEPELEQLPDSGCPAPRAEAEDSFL
T2 sequence (P09619 33-1106): as above
T1 sequence (P00533 25-1210): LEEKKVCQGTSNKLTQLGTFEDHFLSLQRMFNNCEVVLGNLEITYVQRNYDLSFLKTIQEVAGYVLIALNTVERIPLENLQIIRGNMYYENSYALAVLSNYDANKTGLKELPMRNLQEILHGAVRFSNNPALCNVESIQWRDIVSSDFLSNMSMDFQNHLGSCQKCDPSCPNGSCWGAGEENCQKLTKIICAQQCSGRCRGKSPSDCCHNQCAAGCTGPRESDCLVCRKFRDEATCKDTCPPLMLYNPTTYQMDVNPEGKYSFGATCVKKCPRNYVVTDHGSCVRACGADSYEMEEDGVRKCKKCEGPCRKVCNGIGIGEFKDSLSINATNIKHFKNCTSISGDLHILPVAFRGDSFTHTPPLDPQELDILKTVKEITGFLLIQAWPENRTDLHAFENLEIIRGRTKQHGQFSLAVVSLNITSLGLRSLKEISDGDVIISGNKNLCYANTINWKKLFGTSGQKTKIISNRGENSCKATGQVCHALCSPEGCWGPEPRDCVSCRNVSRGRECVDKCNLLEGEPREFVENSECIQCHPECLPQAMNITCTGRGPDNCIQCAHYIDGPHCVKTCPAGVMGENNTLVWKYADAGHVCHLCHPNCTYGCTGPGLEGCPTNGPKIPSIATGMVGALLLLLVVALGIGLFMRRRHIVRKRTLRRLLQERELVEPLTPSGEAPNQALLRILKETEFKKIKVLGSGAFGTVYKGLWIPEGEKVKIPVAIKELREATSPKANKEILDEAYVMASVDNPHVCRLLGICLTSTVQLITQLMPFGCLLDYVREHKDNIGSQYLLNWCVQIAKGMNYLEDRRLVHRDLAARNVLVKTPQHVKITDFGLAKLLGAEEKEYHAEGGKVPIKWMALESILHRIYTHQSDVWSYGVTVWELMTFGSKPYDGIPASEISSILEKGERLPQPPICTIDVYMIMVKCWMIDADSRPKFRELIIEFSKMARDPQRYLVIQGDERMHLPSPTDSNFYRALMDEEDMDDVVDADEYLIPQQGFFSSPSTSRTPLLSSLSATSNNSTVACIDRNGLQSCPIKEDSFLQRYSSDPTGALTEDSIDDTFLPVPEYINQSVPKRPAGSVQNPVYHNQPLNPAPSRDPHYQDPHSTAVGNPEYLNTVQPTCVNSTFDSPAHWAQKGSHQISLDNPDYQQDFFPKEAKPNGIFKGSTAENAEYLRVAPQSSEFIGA

IC50 [1]	IC50 [3]	IC50 ([9]; read-out: PDGFR IC50)	IC50 [10]	SMILES	IC50 ([2]; Rattus norvegicus, C6)	IC50 ([4]; read-out: U1242 KINASE IC50)	LD10 [8]	further results
–	–	–	–	COc1cc(C=C(C#N)C(=O)NCCCc2ccccc2)cc(I)c1O [Compound P16]	17 µM	–	> 400 mg/kg	C6 in vivo EFFICACY ([6]; at 60 mg/kg): no effect; mortality at 240 h [7]: 0%
34 µM	< 0.8 µM	23 µM	10 µM	Cc1cc2ncc(Nc3cccc(I)c3)nc2cc1C [Compound G29]	> 13 µM	23.2 µM	–	–
> 50 µM	> 100 µM	3 µM	> 25 µM	N#CCS(=O)(=O)C(C#N)=Cc1cc(O)c(O)c(Br)c1 [Compound J11]	14 µM	3.1 µM	–	–
–	–	–	–	CC1c2nc3ccccc3c(=O)n2C(c2ccc(O)cc2)N1Cc1ccccc1 (stereo not drawn) [Compound H13]	20 µM	> 50 µM	> 400 mg/kg	IC50 [2]: 10.5 µM; inhibition in vivo at 40 mg/kg [6, 12]: 0%; inhibition in vivo at 100 mg/kg ([6]; Rattus norvegicus, C6 glioma, sc, at 100 mg/kg, read-out: C6 in vivo EFFICACY): 41%; mortality [7, 13]: 0%; mortality at 192 h ([7]; 100 mg/kg (E15 at d8)): 0%
29 µM	16 µM	–	3.3 µM	CC(C)(C)c1cc(C=C(C#N)c2[nH]nc(N)c2C#N)cc(C(C)(C)C)c1O [Compound C13]	–	–	–	IC50 [9]: 16 µM
–	–	–	–	COc1cc2ncnc(N3CCc4ccccc43)c2cc1OC [Compound P17]	12 µM	–	> 100 mg/kg	–
–	–	–	–	Cc1noc(C)c1C(=O)Nc1ccc(C(F)(F)F)cc1 [Compound A13, N-trifluoromethlyphenyl 3,5-dimethylisoxazole-4-carboxamide]	> 25 µM	–	> 200 mg/kg	inhibition at 25 µM ([2]; Rattus norvegicus, C6, at 25 μM): ~30%
> 50 µM	> 50 µM	14 µM	> 50 µM	N#CC(=Cc1c[nH]c2ccccc12)c1c(C#N)c(N)nn1-c1ccccc1 [Compound D20]	–	–	–	–
> 50 µM	> 50 µM	0.9 µM	> 50 µM	Cc1cc2nc(C(=O)O)c(-c3ccccc3)nc2cc1C [Compound G25]	50 µM	1 µM	–	–

SMILES	IC50 [1]	IC50 [3]	IC50 ([9]; read-out: PDGFR IC50)	IC50 [10]	IC50 ([2]; Rattus norvegicus, C6)	IC50 ([4]; read-out: U1242 KINASE IC50)	LD10 [8]	further results
N#CC(=Cc1cc(O)c(O)c(Br)c1)S(=O)(=O)C(C#N)=Cc1cc(O)c(O)c(Br)c1 [Compound J10]	> 100 µM	> 100 µM	–	–	12 µM	> 50 µM	171 mg/kg	IC50 [4, 11]: 1 µM; IC50 [5]: 1 µM; inhibition in vivo at 40 mg/kg [6, 12]: 73%; mortality [7, 13]: 100%
Cc1cc2ncc(Nc3ccc(I)cc3)nc2cc1C [Compound G30]	34 µM	> 100 µM	32 µM	10 µM	2 µM	32.5 µM	–	–
Cc1cc2nc(-c3ccccc3)c(-c3ccc(O)c(O)c3)nc2cc1C [Compound G24]	> 50 µM	> 100 µM	5 µM	9.3 µM	–	0.6 µM and 5 µM	> 200 mg/kg	C6 in vivo EFFICACY ([6]; at 20 mg/kg): no effect; C6 in vivo EFFICACY ([6]; at 40 mg/kg): no effect; C6 in vivo EFFICACY ([6]; at 60 mg/kg): no effect; mortality ([7]; 20 mg/kg): 0%; mortality [7, 13]: 12.5%; mortality at 240 h [7]: 100%
CC1c2nc3ccccc3c(=O)n2C(c2ccc(O)c(O)c2)N1Cc1ccccc1 (stereo not drawn) [Compound H10]	–	–	–	> 50 µM	13 µM	> 50 µM	75 mg/kg	IC50 [4, 11]: 25 µM; IC50 [5]: 25 µM; inhibition in vivo at 30 mg/kg ([6]; Rattus norvegicus, C6 glioma, sc, at 30 mg/kg, read-out: C6 in vivo EFFICACY): 52%; mortality at 408 h ([7]; 30 mg/kg, at d17): 14.3%
